The values that follow come from ChEMBL document CHEMBL6103671, “Novel Piperazine Derivatives as Selective Antagonists of GluN2B-Containing NMDARs under Acidic pH Conditions” (ACS Med Chem Lett, 2025).

Holding throughout (type): cell-based
Test [1] is described as follows: Antagonist activity at human GluN1-1a/[…] receptor expressed in Xenopus laevis oocytes assessed as inhibition of glutamate/glycine-induced current at pH 6.9 with -40 mV holding potential by two-electrode voltage-clamp method. The settings on record: Oocyte. (In general: Two-electrode voltage clamp holds a large cell at a set potential and records current.)
A short description of test [2]: Antagonist activity at human GluN1-1a/[…] receptor expressed in Xenopus laevis oocytes assessed as inhibition of glutamate/glycine-induced current at pH 7.6 with -40 mV holding potential by two-electrode voltage-clamp method. The settings on record: Oocyte.
Test [3] relates to Oocyte. Put plainly: Selectivity ratio of IC50 for antagonist activity at human GluN1-1a/GluN2A receptor expressed in Xenopus laevis oocytes at pH 7.6 to antagonist activity at human GluN1-1a/GluN2A receptor expressed in Xenopus laevis oocytes at pH 6.9.

As a reminder, the IC50 is the concentration that inhibits the measured activity by half. For `O=C1CCc2cc(OC[C@@H](O)CN3CCN(c4ccc(C(F)(F)F)cc4)CC3)ccc2N1`, the IC50 in test [1] worked out at 111 nM; in test [2], 717 nM. The Ratio IC50 in test [3] is 6.5.
With `NC(=O)Nc1ccc(OC[C@H](O)CN2CCN(c3ccc(Cl)cc3)CC2)cc1`, the IC50 in test [1] came out at 19 nM; in test [2] it was 60 nM. For the same compound, the Ratio IC50 in test [3] was 3.2.
Regarding `O=C1CCc2cc(OC[C@H](O)CN3CCN(c4ccc(C(F)(F)F)cc4)CC3)ccc2N1` [NP-10679], the IC50 in test [1] amounted to 23 nM; in test [2], 142 nM. In addition, in test [3], the Ratio IC50 was 6.2.
Turning to `NC(=O)Nc1ccc(OC[C@@H](O)CN2CCN(c3ccc(Cl)cc3)CC2)cc1`, the values for the IC50 in test [1] and in test [2] were 46 nM and 452 nM, respectively. The Ratio IC50 in test [3] was 9.8.
On the same counts, the results for `NC(=O)Nc1ccc(OC[C@@H](O)CN2CCN(c3ccc(Cl)c(Cl)c3)CC2)cc1` are 103 nM, 947 nM and 9.2.
For the compound `NC(=O)Nc1ccc(OC[C@H](O)CN2CCN(c3ccc(Cl)c(Cl)c3)CC2)cc1`, the results for the IC50 in test [1] and in test [2] were 30 nM and 132 nM, respectively. In addition, in test [3], the Ratio IC50 is 4.4.
